In patent EP4455142A1, “NOVEL INHIBITOR OF QPCTL AND/OR QC” (Scenic Immunology B.V., priority 2023, dated 2024):
Values after ≈ are worked out from the molar mass of the structure shown.

Key:
recombinant QC enzyme = target: T1, recombinant QC enzyme (Homo sapiens, UniProt Q16769); test: Assay 2 - QC potency, fluorescent enzymatic assay (H-Gln-AMC, coupled pGAPase detection); format: biochemical; settings: 1 hour at 37°C
T1 construct: bacterial expression of residues 33-361 of uniprot ID Q16769, fused to a His tag; His tag (cleaved yes); made in house
Procedure: After scale-up, expression and lysis, protein was purified by Ni-NTA IMAC, dialysed in the presence of Factor Xa, further purified by Ni-NTA reverse IMAC and finally filtrated for size on a Superdex 200 16/60 column. Final protein was concentrated using a spin concentrator at 10 kDa molecular weight cut-off and formulated in 150 mM NaCl, 50 mM Tris-HCl, 50% Glycerol, pH 8.0.
(§1) Pyroglutamylation was measured by conversion of glutamine-4-amino-7-methylcoumarine (H-Gln-AMC, Bachem) to pyroglutamyl-AMC, which is subsequently a specific substrate for pyroglutamylaminopeptidase (pGAPase, Qiagen), releasing free AMC which can be fluorescently detected. For a typical inhibition assay, 7.5 µL aliquots of threefold dilutions of test compound in 50 mM Tris pH8 buffer were plated in 384-well plates. 15 µL 20 µM h-Gln-AMC (diluted from a 40 mM stock dissolved in 25 mM HEPES using 50 mM Tris-HCl pH 8.0) was added to each well. Finally, 7.5 µL, 3 ng/µL recombinant QC enzyme was added and the reaction mixture was incubated for 1 hour at 37°C. A 5 minute incubation at 98°C was then performed to denature the QC enzyme and stop the reaction.
25 µL of the pyroglutamylation reaction mixture was transferred into an empty plate and to that, 25 µL of the pGAPase enzyme solution was added. Plates were then incubated for 25 minutes at room temperature before fluorescence readings were taken on an Envision2 plate reader with excitation set at 380 nm and emission at 450 nm.
Controls were taken along containing pyroglutamylated-AMC (Bachem, dissolved at 10 mM in DMSO) instead of H-Gln-AMC to control for pGAPase inhibition.
(§2) IC50 values are calculated using non-linear regression analysis with GraphPad Prism software.

[1] = CACO-2-based cell-permeation and efflux; format: in vitro ADME; settings: human, 2 µM compound, pH 7.40
Procedure: CACO-2 (ATCC, Manassas, VA, USA) monolayers on polyethylene membranes in 96-well insert plates were incubated for 2 hours in 5% C02, 37°C with 2 µM compound tested bidirectionally in duplicate using HBSS with 10 mM HEPES at pH 7.40 ±0.05 as transport buffer. Final DMSO Concentrations were adjusted to less than 1%. All samples were mixed with acetonitrile containing internal standard and centrifuged at 3220 x g for 10 minutes. Subsequently, 100 µL supernatant solution was diluted with 100 µL distilled water for LC/MS/MS analysis. Lucifer yellow rejection assays were applied after the transport assay to ensure CACO-2 cell monolayer integrity.
The apparent permeability coefficient Papp (cm/s) was calculated using the equation: Papp = (dCr/dt) × Vr/(A×CO) [formula] where dCr/dt is the cumulative concentration of compound in the receiver chamber as a function of time (µM/s); Vr is the solution volume in the receiver chamber (0.075 mL on the apical side, 0.25 mL on the basolateral side); A is the surface area for the transport, i.e., 0.0804 cm^2 or the area of the monolayer; CO is the initial concentration in the donor chamber (µM).

[2] = Microsomal stability, dog (DLM); format: in vitro ADME; settings: liver microsomes; (beagle) dog microsomes, 0.5 mg protein/mL, 1 µM test compound
Procedure: (§3) In order to assess metabolic stability of test compounds, commercially acquired CD-1 mouse liver microsome preparations were incubated in 100 µL at a final concentration of 0.5 mg protein/mL, 1 µM test compound, 0.99% methanol and 0.01% DMSO, after a 10 minute pre-incubation at 37°C and addition of 0.1 volumes 10 U/mL NADPH in 10 mM MgCl2. Reactions were stopped by addition of 300 µL cold acetonitrile containing internal standards at t = 0, 5, 10, 20, 30, and 60 minutes. Samples were submitted to LC-MS/MS analysis subsequently and the slope of linear regression of time versus In(% Remaining concentration) was derived to calculate t½ as t½= In(2) /(-Slope). Then Clint(mic) and Clint(liver) were calculated as follows: CLint(mk) = (0.693)/(In vitro T1/2) · (1)/(mg/mL microsomal protein in reaction system) [formula] CLint(liver) = CLint(mic) · (mg microsomes)/(g liver) · (g liver)/(kg body weight) [formula]
(§4) The same procedure was performed for human microsomes, SD rat microsomes and (beagle) dog microsomes.
Where 45 mg microsomal protein/g liver and 32 g liver/kg dog bodyweight were used as standardized parameters for […].

Kinetic solubility = format: physicochemical; settings: aqueous buffer; 50 mM phosphate buffer (pH 7.4), 24 hours at room temperature
Procedure: To assess the solubility of test compounds 10 µL of a 10 mM solution in DMSO was added to the lower chamber of a whatman miniuniprep (PTFE Filter Media with Polypropylene Housing) vial. 490 µL of 50 mM phosphate buffer (pH 7.4) was added to the lower chamber, the samples were vortexed for at least two minutes and then shaken on a shaker for 24 hours at room temperature at the speed of 880 rpm. The samples were then centrifuged for 20 minutes at 4000 rpm, compressed and the filtrates were injected into a HPLC-UV and LC-MS/MS system to calculate the concentration compared to the standard curve using a ACQUITY UPLC BEH C18 1.7 µm 2.1 * 50 mm column.

human isoQC = target: T2, human isoQC (Homo sapiens, UniProt Q9NXS2); test: Assay 1 - isoQC potency, fluorescent enzymatic assay (H-Gln-AMC, coupled pGAPase detection); format: biochemical; settings: recombinant isoQC, 1 hour at 37°C
T2 construct: The Golgi luminal, enzymatically active region of human isoQC (S53-L382; see, e.g., Huang et al., 2011); GST (with enterokinase site) (N, cleaved yes); made in house; host or cells: E. coli
Text: The Golgi luminal, enzymatically active region of human isoQC (S53-L382; see, e.g., Huang et al., 2011) was obtained by expression in E. coli of an N-terminally GST Enterokinase and C-terminally 6xHis tagged construct in the pET41(+) vector and subsequent purification using Ni-NTA IMAC. Enterokinase digestion ensued, followed by another Ni-NTA IMAC purification, Superdex75 based size exclusion and finally a spin concentration using a 10 kDa molecular weight cutoff. The final protein is formulated in 50 mM Tris-HCl, 150 mM NaCl, 50% Glycerol, pH 7.8.
as §1, with “in 50mM” for “in 50 mM”, “µM hGln-AMC” for “µM h-Gln-AMC”, “Tris-HCl 25” for “Tris-HCl”, “recombinant isoQC” for “recombinant QC”, “the isoQC” for “the QC”
To detect the amount of pyroglutamyl-AMC formed, a 0.125 U/mL pGAPase enzyme diluted in 50 mM Tris-HCl pH 8.0 containing 10 mM dithiothreitol (DTT) solution was prepared. 25 µL of the pyroglutamylation reaction mixture was transferred into an empty plate and to that, 25 µL of the pGAPase enzyme solution was added. Plates were then incubated for 25 minutes at room temperature before fluorescence readings were taken on an Envision2 plate reader with excitation set at 380 nm and emission at 450 nm. DMSO concentrations during the assay never exceeded 1% and activities were compared to controls containing only the same amount of DMSO and no test compound. Controls were taken along containing pyroglutamylated-AMC (Bachem, dissolved at 10 mM in DMSO) instead of H-Gln-AMC to control for pGAPase inhibition.
as §2

[3] = Microsomal stability, human (HLM); format: in vitro ADME; settings: liver microsomes, 0.5 mg protein/mL, 1 µM test compound
Procedure: as §3, §4
Where 45 mg microsomal protein/g liver and 20 g liver/kg human bodyweight were used as standardized parameters for human microsomes.

[4] = Microsomal stability, rat (RLM); format: in vitro ADME; settings: liver microsomes; SD rat microsomes, 0.5 mg protein/mL, 1 µM test compound
Procedure: as §3, §4
Where 45 mg microsomal protein/g liver and 40 g liver/kg rat bodyweight were used as standardized parameters for rat microsomes.

[5] = Microsomal stability, mouse (MLM); format: in vitro ADME, CD-1 mouse; settings: mouse liver microsomes, 0.5 mg protein/mL, 1 µM test compound
Procedure: as §3
Where 45 mg microsomal protein/g liver and 88 g liver/kg mouse bodyweight were used as standardized parameters for mouse microsomes.

T1 sequence (Q16769 33-361): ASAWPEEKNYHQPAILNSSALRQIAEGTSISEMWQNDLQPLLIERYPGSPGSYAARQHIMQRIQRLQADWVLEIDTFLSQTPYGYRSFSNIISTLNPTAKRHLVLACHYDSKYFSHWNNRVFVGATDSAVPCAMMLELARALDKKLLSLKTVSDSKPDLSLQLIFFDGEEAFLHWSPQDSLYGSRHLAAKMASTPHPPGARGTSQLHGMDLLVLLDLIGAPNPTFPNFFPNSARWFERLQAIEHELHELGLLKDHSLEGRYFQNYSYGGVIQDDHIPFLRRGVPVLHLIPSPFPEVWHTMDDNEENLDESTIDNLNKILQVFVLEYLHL
T2 sequence (Q9NXS2 53-382): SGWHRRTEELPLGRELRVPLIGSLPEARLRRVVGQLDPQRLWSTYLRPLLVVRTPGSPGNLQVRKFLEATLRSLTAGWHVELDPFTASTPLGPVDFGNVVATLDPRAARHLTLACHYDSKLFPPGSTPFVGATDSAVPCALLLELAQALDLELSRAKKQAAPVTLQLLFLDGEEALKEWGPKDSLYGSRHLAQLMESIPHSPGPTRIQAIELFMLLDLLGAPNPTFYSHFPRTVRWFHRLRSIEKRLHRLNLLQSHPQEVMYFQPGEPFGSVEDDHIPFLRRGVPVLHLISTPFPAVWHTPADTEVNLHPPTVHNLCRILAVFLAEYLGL

SMILES: O=C1OCC(c2cc(F)cc(C(F)(F)F)c2)N1c1ccc2[nH]cnc2c1 (single isomer, unassigned) [(17)-ent2]
- IC50 (recombinant QC enzyme): 1080 nM
- Papp A→B at 2 h, 2 µM ([1]; Caco-2, pH 7.4, A2B): 1.5 ×10⁻⁶ cm/s
- Papp B→A at 2 h, 2 µM ([1]; Caco-2, pH 7.4, B2A): 36.8 ×10⁻⁶ cm/s
- CLint scaled at 1 µM [2]: < 13.8 mL/min/kg
- solubility at 24 h (Kinetic solubility): 39 µM (≈ 14.2 µg/mL)
- IC50 (human isoQC): 632 nM
- CLint scaled at 1 µM [3]: < 8.6 mL/min/kg
- CLint scaled at 1 µM [4]: 49 mL/min/kg
- CLint scaled at 1 µM [5]: 182 mL/min/kg
